Source: US11464770B2, “Anticancer pharmaceutical composition” (NATIONAL CANCER CENTER, priority 2016, dated 2022)
Read-outs that look alike come from different tables or passages of the source.

How the values were obtained:
[1] = system: lung cancer cell lines (e.g. NCI-H23, NCI-H1229); experiment: Cell based assay, cell viability (CellTiter-Glo), lung cancer cell lines; settings: Homo sapiens, 72 hours treatment, CellTiter-Glo
Protocol: (§1) Commercially available bladder cancer, prostate cancer, lung cancer, breast cancer, blood cancer, pancreatic cancer, colorectal cancer, brain cancer, neuroblastoma, melanoma, liver cancer, cervical carcinoma, ovarian cancer, renal cancer, and papilloma cell lines were each treated with trypsin-EDTA and cultured, followed by being seeded in each well of a 96 well plate. After 24 hours of treatment at constant temperature, the respective cells were treated with the candidate compound so that a final concentration became 0 to 2 μM. The treated cells were additionally cultured for 72 hours, and cell viability was measured by using an ATP detection method (CellTiter-Glo® Luminescent Cell Viability Assay, Promega).

brain cancer cell lines = experiment: Cell based assay, cell viability (CellTiter-Glo), brain cancer cell lines; settings: Homo sapiens
Protocol: Commercially available bladder cancer, prostate cancer, lung cancer, breast cancer, blood cancer, pancreatic cancer, colorectal cancer, brain cancer, neuroblastoma, melanoma, liver cancer, cervical carcinoma, ovarian cancer, renal cancer, and papilloma cell lines were each treated with trypsin-EDTA and cultured, followed by being seeded in each well of a 96 well plate. […] The treated cells were additionally cultured for 72 hours, and cell viability was measured by using an ATP detection method (CellTiter-Glo® Luminescent Cell Viability Assay, Promega).

melanoma cell lines = experiment: Cell based assay, cell viability (CellTiter-Glo), melanoma cell lines; settings: Homo sapiens; LOX-IMVI cell line
Protocol: as §1

[2] = A549 cells, read-out: IC50, lung cancer cell line A549
[3] = DMS 114 cells, read-out: IC50, lung cancer cell line DMS 114
[4] = NCI-H23 cells, read-out: IC50, lung cancer cell line NCI-H23
[5] = NCI-H460 cells, read-out: IC50, lung cancer cell line NCI-H460
[6] = NCI-H522 cells, read-out: IC50, lung cancer cell line NCI-H522
[7] = NCI-H1299 cells, read-out: IC50, lung cancer cell line NCI-H1299
[8] = NCI-H1437 cells, read-out: IC50, lung cancer cell line NCI-H1437
[9] = U138-MG, U-138 MG cell line, read-out: IC50, Brain cancer cell line U-138 MG
[10] = T98G cell line, read-out: IC50, Brain cancer cell line T98G
[11] = U-251 MG cell line, read-out: IC50, Brain cancer cell line U-251 MG

Structure (SMILES) | IC50 [1, 2] [nM] | IC50 [1, 3] [nM] | IC50 [1, 4] [nM] | IC50 [1, 5] [nM] | IC50 [1, 6] [nM] | IC50 [1, 7] [nM] | IC50 [1, 8] [nM] | IC50 (brain cancer cell lines; [9]) [nM] | IC50 (brain cancer cell lines; [10]) [nM] | IC50 (brain cancer cell lines; [11]) [nM] | IC50 (melanoma cell lines) [nM] | IC50 ([1]; MRC-5 cells, read-out: IC50) [nM]
CC(=O)c1c([S+]([O-])Cc2ccccc2)nc2c(Br)ccc(Cl)c2c1O (centres unmarked) [Compound 4] | 1970 | > 2000 | 920 | 1650 | > 2000 | 1400 | > 2000 | 1810 | > 10000 | 1220 | 1090 | 910
CSc1[nH]c2ccc(F)cc2c(=O)c1C(C)=O [Compound 8, 1-(6-fluoro-4-hydroxy-2-(methylthio)quinolin-3-yl)ethan-1-one] | > 2000 | > 2000 | > 2000 | > 2000 | > 2000 | > 2000 | > 10000 | > 10000 | > 10000 | > 2000 | > 2000 | > 2000
CC(=O)c1c([S+](C)[O-])n(C(=O)c2ccc(Br)cc2)c2c(Br)ccc(Cl)c2c1=O (centres unmarked) [Compound 9, 3-acetyl-8-bromo-1-(4-bromobenzoyl)-5-chloro-2-(methylsulfinyl)quinolin-4(1H)-one] | > 2000 | > 2000 | 900 | > 2000 | > 2000 | 1260 | > 10000 | 1260 | > 10000 | > 2000 | 1050 | > 2000
CC(=O)c1c(SCc2ccc(Cl)cc2)[nH]c2c(Br)ccc(Cl)c2c1=O [Compound 10, 3-acetyl-8-bromo-5-chloro-2-((4-chlorobenzyl)thio)quinolin-4(1H)-one] | > 2000 | > 2000 | > 2000 | > 2000 | > 2000 | > 2000 | > 10000 | > 10000 | > 10000 | > 2000 | > 2000 | > 2000
CC(=O)c1c([S+]([O-])Cc2ccc(Cl)cc2)[nH]c2c(Br)ccc(Cl)c2c1=O (centres unmarked) [Compound 11, 3-acetyl-8-bromo-5-chloro-2-((4-chlorobenzyl)sulfinyl)quinolin-4(1H)-one] | > 2000 | > 2000 | 1550 | > 2000 | > 2000 | > 2000 | > 10000 | > 2000 | > 10000 | > 2000 | > 2000 | > 2000
CC(=O)c1c(Sc2ccccc2)[nH]c2c(Br)ccc(Cl)c2c1=O [Compound 12, 3-acetyl-8-bromo-5-chloro-2-(phenylthio)quinolin-4(1H)-one] | > 2000 | > 2000 | > 2000 | > 2000 | > 2000 | > 2000 | > 10000 | > 10000 | > 10000 | > 2000 | > 2000 | > 2000
CC(=O)c1c([S+]([O-])c2ccccc2)[nH]c2c(Br)ccc(Cl)c2c1=O (centres unmarked) [Compound 13, 3-acetyl-8-bromo-5-chloro-2-(phenylsulfinyl)quinolin-4(1H)-one] | > 2000 | > 2000 | > 2000 | > 2000 | > 2000 | > 2000 | > 10000 | > 10000 | > 10000 | > 2000 | > 2000 | > 2000
COc1ccccc1Sc1[nH]c2c(Br)ccc(Cl)c2c(=O)c1C(C)=O [Compound 14, 3-acetyl-8-bromo-5-chloro-2-((2-methoxyphenyl)thio)quinolin-4(1H)-one] | > 2000 | > 2000 | > 2000 | > 2000 | > 2000 | > 2000 | > 10000 | > 10000 | > 10000 | > 2000 | > 2000 | > 2000
CC(=O)c1c(SCc2cccc(F)c2)[nH]c2c(Br)ccc(Cl)c2c1=O [Compound 49, 3-acetyl-8-bromo-5-chloro-2-((3-fluorobenzyl)thio)quinolin-4(1H)-one] | > 2000 | > 2000 | > 2000 | > 2000 | > 2000 | > 2000 | > 10000 | > 10000 | > 10000 | > 2000 |  | > 2000

More lines, main results first:

IC50 [1, 2] [nM] | IC50 [1, 3] [nM] | IC50 [1, 4] [nM] | IC50 [1, 5] [nM] | IC50 [1, 6] [nM] | IC50 [1, 7] [nM] | IC50 [1, 8] [nM] | IC50 (brain cancer cell lines; [9]) [nM] | IC50 (brain cancer cell lines; [10]) [nM] | IC50 (brain cancer cell lines; [11]) [nM] | IC50 (melanoma cell lines) [nM] | Structure (SMILES) | IC50 ([1]; MRC-5 cells, read-out: IC50) [nM]
> 2000 | > 2000 | 1340 | > 2000 | > 2000 | 1880 | > 10000 | > 2000 | > 10000 | > 2000 | 1500 | CC(=O)c1c([S+](C)[O-])[nH]c2c(Br)ccc(Cl)c2c1=O (centres unmarked) [Compound 1, 3-acetyl-8-bromo-5-chloro-2-(methylsulfinyl)quinolin-4(1H)-one] | 1340
> 2000 | > 2000 | > 2000 | > 2000 | > 2000 | > 2000 | > 10000 | > 10000 | > 10000 | > 2000 | > 2000 | CSc1[nH]c2c(Br)ccc(Cl)c2c(=O)c1C(C)=O [Compound 2, 3-acetyl-8-bromo-5-chloro-2-(methylthio)quinolin-4(1H)-one] | > 2000
> 2000 | > 2000 | > 2000 | > 2000 | > 2000 | > 2000 | > 10000 | > 10000 | > 10000 | > 2000 | > 2000 | CC(=O)c1c(SCc2ccccc2)[nH]c2c(Br)ccc(Cl)c2c1=O [Compound 3, 3-acetyl-2-(benzylthio)-8-bromo-5-chloroquinolin-4(1H)-one] | > 2000
> 2000 | > 2000 | > 2000 | > 2000 | > 2000 | > 2000 | > 10000 | > 10000 | > 10000 | > 2000 | > 2000 | CSc1c(C(C)=O)c(=O)c2c(Cl)ccc(Br)c2n1C [Compound 5, 3-acetyl-8-bromo-5-chloro-1-methyl-2-(methylthio)quinolin-4(1H)-one] | > 2000
> 2000 | > 2000 | 1310 | > 2000 | > 2000 | 1840 | > 10000 | > 2000 | > 10000 | > 2000 | 1350 | CC(=O)c1c([S+](C)[O-])[nH]c2c(Cl)ccc(Cl)c2c1=O (centres unmarked) [Compound 6, 3-acetyl-5,8-dichloro-2-(methylsulfinyl)quinolin-4(1H)-one] | > 2000
> 2000 | > 2000 | > 2000 | > 2000 | > 2000 | > 2000 | > 10000 | > 10000 | > 10000 | > 2000 | > 2000 | CSc1c(C(C)=O)c(=O)c2cc(F)ccc2n1C [Compound 7, 3-acetyl-6-fluoro-1-methyl-2-(methylthio)quinolin-4(1H)-one] | > 2000
